Patent publication US9125388B2, “Biological control” (Isis Innovation Limited, priority 1999, dated 2015)

System: bnk-tTa × tRe-Nipp1Dm
Assay: Tc-repressible lethality using an embryo-specific promoter (Table 2), adult progeny by sex
Type: in vivo, Drosophila melanogaster
Details: embryos laid on this food for 9 days
Excerpt: Flies were reared on standard yeast/cornmeal/agar food with a yeast concentration of 45-50 gl^−1. Tc-containing food was made to the same recipe with the addition of tetracycline hydrochloride (Sigma-Aldrich) solution to the appropriate final concentration.
As ectopic Ras64B^V12 apparently lacks embryonic toxicity under the conditions we are using, we placed a different toxic gene under the control of tRe. We chose to use Nipp1Dm, a Drosophila homolog of mammalian NIPP-1, a nuclear inhibitor of protein phosphatase type 1 (Beullens et al., (1992), J. Biol. Chem. 267, 16538-16544; Van Eynde et al., (1995), J Biol Chem 270, 28068-74). NIPP1 has several advantages as a “killer gene” in this system. Flies carrying homozygous insertions of bnk-tTa or tRe-Nipp1 were crossed to each other. […] Furthermore, F1 survival was not affected by the presence or absence of Tc in the media on which the F1 were raised. We have therefore constructed an efficient dominant lethal genetic system repressible by parental dietary Tc.
Males homozygous for bnk-tTa were mated with females homozygous for either tRe-Ras64B^V12 or tRe-Nipp1Dm. These flies were raised on media lacking Tc, but before mating were placed on food containing various concentrations of Tc. They were allowed to lay embryos on this food for 9 days, and then the parents were removed. Their adult progeny of each sex were counted.

[1] = parents on food containing Tc 0.1 μg/ml
[2] = parents on food containing Tc 1.0 μg/ml

## CN(C)[C@@H]1C(O)=C(C(N)=O)C(=O)[C@@]2(O)C(O)=C3C(=O)c4c(O)cccc4[C@@](C)(O)[C@H]3C[C@@H]12 [Tetracycline, tetracycline]
[1]
  Females, adult progeny: 58
  Males, adult progeny: 60
[2]
  Females, adult progeny: 82
  Males, adult progeny: 78
